ChEMBL document CHEMBL1201862, “PubChem BioAssay data set” (2004)
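Dose response: 5 concentrations. Exposure: 48 h. Format: 96-well plates. Endpoint: linear interpolation; highest concentration if not reached. Here, GI50 denotes the concentration required for 50% inhibition of growth.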 Active and inactive are the calls of the source. Rule as the data show it: active = GI50 up to about 1.1 µM and inactive = higher.

Tests used:
Test in all cases: inhibition of tumour cell growth, NCI panel, 48 h
[1] = tested on: HCC 2998
[2] = tested on: CAKI-1
[3] = tested on: NCI-H522
[4] = tested on: KM12
[5] = tested on: NCI/ADR-RES
[6] = tested on: NCI-H226
[7] = tested on: LOX IMVI
[8] = tested on: HCT-116
[9] = tested on: HL-60
[10] = tested on: SF-295
[11] = tested on: T47D
[12] = tested on: M14
[13] = tested on: 786-0
[14] = tested on: A498
[15] = tested on: RXF 393
[16] = tested on: PC-3
[17] = tested on: NCI-H460
[18] = tested on: HOP-92
[19] = tested on: SNB-75
[20] = tested on: SR

SMILES | GI50 [1] | GI50 [2] | GI50 [3] | GI50 [4] | GI50 [5] | GI50 [6] | GI50 [7] | GI50 [8] | GI50 [9] | GI50 [10] | GI50 [11] | GI50 [12] | GI50 [13] | GI50 [14] | GI50 [15] | GI50 [16] | GI50 [17] | GI50 [18] | GI50 [19] | GI50 [20]
O=C1CNC(=O)/C(=C/c2c[nH]c3ccccc23)N1 | > 100 µM (inactive) | > 100 µM (inactive) | 85.3 µM (inactive) | > 100 µM (inactive) | > 100 µM (inactive) | > 100 µM (inactive) | > 100 µM (inactive) | > 100 µM (inactive) | 36.3 µM (inactive) | > 100 µM (inactive) | > 100 µM (inactive) | > 100 µM (inactive) | > 100 µM (inactive) | > 100 µM (inactive) | > 100 µM (inactive) | > 100 µM (inactive) | > 100 µM (inactive) | > 100 µM (inactive) |  | 
Cc1cccc2nc3cccc(C(=O)NCCC[N+](C)(CCCNC(=O)c4cccc5nc6cccc(C)c6nc45)Cc4ccc([N+](=O)[O-])n4C)c3nc12 | 11.6 µM (inactive) | 0.895 µM (active) | 4.13 µM (inactive) | 2.26 µM (inactive) | > 32.3 µM (inactive) |  | 0.871 µM (active) | 0.0615 µM (active) |  | 5.66 µM (inactive) | 14.9 µM (inactive) | > 31.3 µM (inactive) | 0.32 µM (active) |  | > 100 µM (inactive) | 1.83 µM (inactive) | 0.405 µM (active) | > 100 µM (inactive) | > 100 µM (inactive) | 0.294 µM (active)
COc1ccc(/N=C(/C[S+]([O-])c2ccc(C)cc2)C(F)(F)F)cc1 (stereo unspecified) | 41 µM (inactive) | > 100 µM (inactive) | > 100 µM (inactive) | 27.9 µM (inactive) | > 100 µM (inactive) | > 100 µM (inactive) | > 100 µM (inactive) | > 100 µM (inactive) | 19.1 µM (inactive) | 56.2 µM (inactive) | > 100 µM (inactive) | > 100 µM (inactive) | > 100 µM (inactive) |  | > 100 µM (inactive) | 26.5 µM (inactive) | > 100 µM (inactive) | > 100 µM (inactive) | > 100 µM (inactive) | > 100 µM (inactive)
CCN1CCC(O)(c2ccc(Oc3ccc(F)cc3)cc2)C(C(=O)c2ccc(Oc3ccc(F)cc3)cc2)C1 (stereo unspecified) | 11.4 µM (inactive) | 13 µM (inactive) |  | 4.42 µM (inactive) | 10.3 µM (inactive) | 13.6 µM (inactive) | 11.8 µM (inactive) | 13.6 µM (inactive) |  | 15.7 µM (inactive) | 13.4 µM (inactive) | 16.9 µM (inactive) | 11.6 µM (inactive) |  | 12.2 µM (inactive) | 13.4 µM (inactive) |  | 11.9 µM (inactive) | 15.5 µM (inactive) | 2.33 µM (inactive)
N#CC(NC12CC3CC(CC(C3)C1)C2)c1ccccc1 (stereo unspecified) | > 100 µM (inactive) | > 100 µM (inactive) | > 100 µM (inactive) | > 100 µM (inactive) | > 100 µM (inactive) | > 100 µM (inactive) | > 100 µM (inactive) | > 100 µM (inactive) | > 100 µM (inactive) | > 100 µM (inactive) | > 100 µM (inactive) | > 100 µM (inactive) | > 100 µM (inactive) |  | > 100 µM (inactive) | > 100 µM (inactive) | > 100 µM (inactive) | 94.2 µM (inactive) | > 100 µM (inactive) | > 100 µM (inactive)
CC(C)=CC(=O)O[C@@H]1CC(C)(C)CC2C3=CCC4[C@]56CC[C@](O)(OC5)C(C)(C)C6CC[C@@]4(C)C3(C)CC[C@]21C(=O)O (stereo partly specified) | > 100 µM (inactive) | > 100 µM (inactive) | 51.6 µM (inactive) | 33 µM (inactive) | 47.6 µM (inactive) | 34.2 µM (inactive) | 17.1 µM (inactive) | 38 µM (inactive) | 44.2 µM (inactive) | 56.5 µM (inactive) | > 100 µM (inactive) | > 100 µM (inactive) | 69.8 µM (inactive) | > 100 µM (inactive) | > 100 µM (inactive) | 33.2 µM (inactive) | 35.2 µM (inactive) |  |  | 61 µM (inactive)
COc1cc(-c2oc3c(OC)c(O)c(OC)c(O)c3c(=O)c2OC)cc(OC)c1OC | 52.4 µM (inactive) | 42.8 µM (inactive) | 17.4 µM (inactive) | > 100 µM (inactive) | 62.5 µM (inactive) | > 100 µM (inactive) | 35.4 µM (inactive) | 68.1 µM (inactive) | 41 µM (inactive) | > 100 µM (inactive) | 24.6 µM (inactive) | 14.1 µM (inactive) | 32.4 µM (inactive) | 51.2 µM (inactive) |  | 65.8 µM (inactive) | 39 µM (inactive) |  | 20.8 µM (inactive) | 51.2 µM (inactive)
CC(=O)Oc1ccccc1C(=O)O [ASPIRIN] |  | > 100 µM (inactive) | > 100 µM (inactive) | > 100 µM (inactive) | > 100 µM (inactive) | > 100 µM (inactive) | > 100 µM (inactive) | > 100 µM (inactive) | > 100 µM (inactive) | > 100 µM (inactive) | > 100 µM (inactive) | > 100 µM (inactive) | > 100 µM (inactive) |  | > 100 µM (inactive) | > 100 µM (inactive) |  |  | > 100 µM (inactive) | > 100 µM (inactive)
